In PubChem BioAssay (NCI) one finds TGI and GI50 data, which are given here for twelve compounds.

Each structure is given as a SMILES string.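 48-hour exposure; five concentrations; linearly interpolated endpoints. GI50 marks 50% less growth. TGI: concentration producing complete growth inhibition.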

Holding throughout (test): DTP human tumour cell line panel, 48 h
Test [1] has as its system A549 NSCLC.
For test [2], the system named is HCT-15 colon.
The test system of test [3] is DMS 114 small cell lung.
Test [4] deals with COLO 205 colon.
In test [5] the test system is MOLT-4 leukemia.
The subject of test [6] is M19-MEL melanoma.
Test [7] has as its system OVCAR-4 ovarian.
Test [8] relates to HOP-92 NSCLC.
For test [9], the system named is OVCAR-5 ovarian.
The subject of test [10] is SR leukemia.

For `Cc1nc2ccccc2c(=O)n1/N=C(\N=Nc1cc(Cl)ccc1Cl)c1ccc(N(C)C)cc1`, the concentration for total growth inhibition (TGI) was > 100 µM in [1]; > 100 µM in test [2]; 93.6 µM in test [3]; > 100 µM in [4]; > 100 µM in test [5]; > 100 µM in [6].
With `O=C1c2ccccc2C(=O)c2c1ccc1c3ccccc3n(-c3ccccc3)c21`, the TGI came out at 33.5 µM in test [7]; 11.7 µM in test [8]; 47 µM in [9]; 58.1 µM in test [1]; 32.6 µM in [2]; 41.9 µM in test [10]. Also, the TGI in test [4] was determined as 34.2 µM; in test [5], 11.1 µM; in test [6], 38.6 µM.
For `C=C1C(=O)C23C(O)CC4C(C)(C)CCC(O)C4(C)C2CC(OC(C)=O)C1[C@H]3O` (stereo partly specified), the TGI in test [8] is 7.01 µM; in [9], 21.5 µM; in test [1], 13.7 µM; in test [2], 6 µM; in test [10] it was > 41.1 µM; in test [4], 5.3 µM. The TGI was found to be 8.08 µM in [5] and 3.22 µM in [6].
For `CCN(CC)c1ccc(N=Nc2ccc(-c3nc4cccnc4s3)cc2)cc1`, the TGI in test [7], in test [8], in test [9], in test [1], in test [10] and in test [3] was > 100 µM throughout. Further, the TGI in test [4] and in test [5] was > 100 µM each time.
For the compound `N#Cc1sc2nc3c(c(-c4ccccc4)c2c1N)CCCC3`, the TGI in test [7], in [8], in test [9], in test [1], in [2] and in test [10] was > 100 µM in each case. The TGI in [5] and in test [6] was > 100 µM in each case.
On to `CN(C)NC(=O)NC12CC3CC(CC(C3)C1)C2`, for which the TGI in test [7], in test [8], in test [9], in test [1], in test [2] and in test [10] was > 100 µM throughout. Also, the TGI in test [4], in test [5] and in test [6] was > 100 µM each time.
Consider `COc1ccc2c(c1O)[C@@]13CCCC=C1[C@@H](C2)N(C)CC3`, for which the TGI in [7] was > 100 µM; in [8], > 100 µM; in test [9] it was > 100 µM; in test [1] it was > 100 µM; in [2], > 100 µM; in [10] it was 81.5 µM. The concentration for total growth inhibition (TGI) in [4] and in [5] was > 100 µM each time.
Consider `CCc1ccc([OH2+])c(C(=O)[O-])c1.CCc1ccc([OH2+])c(C(=O)[O-])c1.CCc1ccc([OH2+])c(C(=O)[O-])c1.CCc1ccc([OH2+])c(C(=O)[O-])c1.[Cu+2].[Cu+2]`, for which the GI50 was 28.3 µM in [7]; > 95.9 µM in test [8]; 32.3 µM in test [9]; 38.6 µM in [1]; > 88.2 µM in test [2]; 24.5 µM in test [10]. In addition, the GI50 in test [4] is > 100 µM; in test [5], 34.2 µM. Besides, the TGI in test [7] is > 100 µM; in [8], > 100 µM; in [9] it was 70.2 µM; in test [1] it was > 100 µM; in [2], > 100 µM; in test [10] it was > 100 µM. Also, the total growth inhibition concentration (TGI) in test [4] and in test [5] was > 100 µM throughout.
As to `CC/C(=C/c1ccc(OC)cc1)[N+](=O)[O-]`, the GI50 in [7] is 3.15 µM; in [8], 1.74 µM; in test [9], 2.34 µM; in test [1], 6.07 µM; in test [2], 1.48 µM; in test [10], 2.31 µM. Also, the GI50 in test [4] was 1.89 µM; in test [5] it was 2.7 µM. Besides, the total growth inhibition concentration (TGI) in [7] stood at 12.1 µM; in [8], 3.43 µM; in test [9], 6.08 µM; in test [1], 19.6 µM; in test [2], 3.08 µM; in [10] it was 7.65 µM. For the same compound, the total growth inhibition concentration (TGI) in test [4] worked out at 3.75 µM; in test [5] it was 7.3 µM.
Take `O=C1c2ccccc2-c2cn(Cc3ccccc3)c3cccc(c23)C1c1cccnc1` (stereo unspecified): the GI50 is 6.15 µM in test [7]; 2.74 µM in [8]; > 50 µM in test [9]; 3.2 µM in [1]; 2.54 µM in test [2]; 1.78 µM in [10]. The GI50 in [4] was 2.26 µM; in test [5], 3.2 µM. Besides, the total growth inhibition concentration (TGI) in test [7], in test [8], in [9], in [1], in test [2] and in test [10] was > 50 µM in each case. The figures for the TGI in test [4] and in [5] were 9.44 µM and > 50 µM, respectively.
For the compound `COc1cc(/C=N\Nc2ccccc2)ccc1OC(=O)c1ccccc1`, the GI50 in test [7] was 8.21 µM; in test [8] it was 12.2 µM; in test [9], 12.8 µM; in test [1] it was 4.01 µM; in [2] it was 0.306 µM; in test [10], 16.5 µM. The GI50 is 6.48 µM in test [4] and 1.94 µM in test [5]. Besides, the TGI in test [7] is > 100 µM; in test [8], > 89 µM; in test [9] it was > 100 µM; in test [1] it was 37.5 µM; in [2], 17.6 µM; in [10], > 100 µM. For the same compound, the TGI was 25.5 µM in test [4] and > 100 µM in test [5].
`COc1ccc([C@@H]2[C@@H](Cl)C(=O)N2c2cc(OC)c(OC)c(OC)c2)cc1C`: the GI50 in test [7] was 0.769 µM; in test [8], 0.144 µM; in test [9], 0.305 µM; in test [1] it was 0.273 µM; in [2], 0.0535 µM; in [10], 0.0397 µM. For the same compound, the GI50 in [4] is 0.0386 µM; in [5] it was 0.181 µM. The TGI in test [7] was > 100 µM; in test [8], 24.9 µM; in test [9], > 100 µM; in test [1], > 100 µM; in test [2], > 100 µM; in test [10], 54.4 µM. The TGI is 0.159 µM in test [4] and > 100 µM in test [5].

The term TGI denotes the concentration at which net growth stops. As a reminder, the GI50 is the concentration giving 50% growth inhibition.
